Data reported in patent US10280174B2, “Salt of fused pyrimidine compound and crystal thereof” (TAIHO PHARMACEUTICAL CO., LTD., priority 2015, dated 2019).

Experiments:
[1] = Solid stability test (acceleration test), 40° C./75% RH; type: physicochemical; conditions: for total mass of analogous substance: 4 weeks
Method: Solid stability was measured under the following conditions, with respect to monofumarate of Compound A, hemifumarate of Compound A, hemitartrate of Compound A and monophosphate of Compound A which were obtained in the Examples and the Reference Examples, when they were stored for 2 weeks or 4 weeks at 40° C./75% RH (sealed condition and opened condition).
Storage condition: 40° C./75% RH (Sealed and Opened) (Opened refers to a condition where a glass container has the lid removed, and is covered with a KimWipe).
Points of measurement: 2 weeks and 4 weeks
(§1) Storage amount: About 30 mg
(§2) Storage container: Brown glass container
(§3) Method of preparing sample solution: Sample was dissolved in 50% acetonitrile such that a concentration of the sample would be 0.4 mg/mL.
Mass of analogous substance in the sample solution was measured by HPLC analysis. Handling of the devices including data processing was based on the method and the process indicated in each device. (Device: Shimadzu Corporation SIL-HTc/LC-20AB)
Column: InertSustein C18, 4.6×150 mm, 3 μm, manufactured by GL Sciences Inc.
MS detection: ESI positive
Column temperature: 40° C.
Column flow rate: 1.0 mL/min
Mobile phase: A; 10 mmol/L phosphate buffer (pH 6.0): Acetonitrile mixed solution (17:3), B; Acetonitrile
Amount of injection: 5 μL
In the Table, A, B and C refer to percentages of the total mass of analogous substance of less than 0.1%, 0.1% or more and less than 0.5%, and 0.5% or more, respectively. Incidentally, those marked with * were measured at 2 weeks' time and the others were measured at 4 weeks' time.

[2] = Solid stability test (severe test), 60° C.; type: physicochemical
Method: Solid stability was measured under the following conditions, with respect to monofumarate of Compound A, hemitartrate of Compound A and monophosphate of Compound A which were obtained in the Examples and the Reference Examples, when they were stored for 2 weeks or 4 weeks at 60° C.
Storage condition: 60° C. (Sealed)
Point of measurement: 2 weeks and 4 weeks
as §1, §2, §3
In the Table, A and B refer to percentages of the total mass of analogous substance of less than 0.1%, and 0.1% or more and less than 0.5%, respectively. Incidentally, the value marked with * was measured at 2 weeks and the others were measured at 4 weeks.

total mass of analogous substance ([1]; Opened): A (less than 0.1%)
total mass of analogous substance ([1]; Sealed): A (less than 0.1%)
solid stability (in words) ([1]; compared to hemitartrate or monophosphate): excellent solid stabilities
total mass of analogous substance ([2]; 60° C. (Sealed), 4 weeks): A (less than 0.1%)
solid stability (in words) ([2]; 60° C., compared to hemitartrate or monophosphate): excellent solid stabilities
Structure (SMILES): C=CC(=O)N1CCC[C@@H](n2nc(C(=O)Nc3nc4ccccc4o3)c3c(N)ncnc32)C1.O=C(O)/C=C/C(=O)O [monofumarate of Compound A, (R)-1-(1-acryloylpiperidin-3-yl)-4-amino-N-(benzo[d]oxazol-2-yl)-1H-pyrazolo[3,4-d]pyrimidine-3-carboxamide.monofumarate]
